{
  "source": "patent US8728777B2",
  "about": "“High performance metabolic bacteria” (Deinove, priority 2009, dated 2014)",
  "key": {"[1]": {"test_system": "Deinococcus strain M13-1A", "settings": "ethanol added at exponential phase, 2 hours incubation, minimum concentration with loss of one log in relation to the control", "description": "(§1) This method enables evaluation of the micro-organism sensitivity to ethanol. The test is carried out at 45° C. (Thermophilic strains). Ethanol bactericidy is determined with ethanol added at: • T0, • exponential phase, • stationary phase.\n(§2) Ethanol Bactericidy at Exponential and Stationary Phases Test:\n(§3) From a pre-culture in stationary phase in an enriched culture medium, for each ethanol content to be tested, 5 mL of Complex medium Glucose is seeded at 1% v/v.\n(§4) Complex Medium Glucose contains: peptone 2 g/L, yeast extract 5 g/L and glucose 10 g/Lin osmosed water: solution sterilized by autoclaving (15 minutes at 120° C.). To this solution are added the following solutions: MOPS buffer solution (10×) pH7 [acid MOPS 400 mM, NH4Cl 200 mM, NaOH 100 mM, KOH 100 mM, CaCl2 5 μM, Na2SO4 2.76 mM, MgCl2 5.28 mM]; micronutrients (10000×) [[…] 300 mM, H3BO3 4 mM, CoCl2 0.3 mM, CuSO4 0.1 mM, MnCl2 2.5 mM, ZnSO4 0.1 mM]; FeCl3(100×) 2 mM in C6H5Na3O7 20 mM; K2HPO4 1 g/L: solutions sterilized by filtration (0.2 μm).\n(§5) A follow-up of growth is carried out using the control culture (no ethanol add neither at exponential phase nor at stationary phase). OD is read at 600 nm using a spectrophotometer (UV Light XS5, SECOMAM).\n(§6) Once the exponential growth phase (optical density of 0.5 at 600 nm), or once the stationary phase (plateau), is reached, the solvent is added. The content tested is 0 to 20%. Then, cultures are incubated during 2 hours.\n(§7) At the end of the incubation period and for each ethanol content tested, a count is taken to assess the influence of the ethanol on the strain.\n(§8) Count: At the end of incubation, and for each concentration in solvent, 200 μL of culture are transferred onto another microplate and are diluted in cascade (dilutions at 1/10 over 9 wells). The dilution culture medium is an enriched medium."}, "[2]": {"test_system": "Deinococcus strain MC2-2A", "settings": "2 hours incubation, minimum concentration with loss of one log in relation to the control", "description": "as §1, §2, §3, §4, §5, §6, §7, §8"}, "[3]": {"test_system": "Deinococcus strain M13-1A", "settings": "ethanol added at T0, 45° C., aerobiosis, Complex medium Glucose, minimum concentration with total growth inhibition", "description": "as §1\n(§9) For ethanol bactericidy at T0, ethanol percentages between 0 to 10% are tested.\n(§10) From a pre-culture in stationary phase in an enriched culture medium, for each ethanol content to be tested, 200 μl of Complex medium Glucose is seeded at 1% v/v.\nas §4\n(§11) The test is performed in 96 wells microplates in aerobiosis. Ethanol evaporation is avoided using a sterile impermeable film.\n(§12) The reading of the result is done by naked eye."}, "[4]": {"test_system": "Deinococcus strain MC2-2A", "settings": "ethanol added at T0, 45° C., aerobiosis, Complex medium Glucose, minimum concentration with total growth inhibition", "description": "as §1, §9, §10, §4, §11, §12"}},
  "data": [
    {"smiles": "CCO", "note": "[Ethanol, ethanol]", "values": [
      {"measurement": "Ethanol Bactericidy Exponential phase", "setting": "[1]", "value": 5, "unit": "%"},
      {"measurement": "Ethanol Bactericidy Exponential phase", "setting": "[2]; ethanol added at exponential phase", "value": 15, "unit": "%"},
      {"measurement": "Ethanol Bactericidy Stationary phase", "setting": "[2]; ethanol added at stationary phase", "value": 15, "unit": "%"},
      {"measurement": "Ethanol Bactericidy T0", "setting": "[3]", "value": 2.5, "unit": "%"},
      {"measurement": "Ethanol Bactericidy T0", "setting": "[4]", "value": 5, "unit": "%"}
    ]}
  ]
}
